In patent publication US20190142835A1, “INHIBITION OF AUTOPHAGY USING PHOSPHOLIPASE A2 INHIBITORS” (OREGON HEALTH & SCIENCE UNIVERSITY, priority 2017, published 2019):

Columns and labels:
ACHN cells [1] = assay: High content imaging screen of 116 small molecule inhibitors for p62 and pS6; format: cell-based, human; settings: HCI screen, 72 hr
Text: We used a metastatic human RCC cell line, ACHN. Small molecule inhibitors have been extensively used in RCC over the last decade. […] Importantly, p62 is an autophagy substrate that is degraded along with its cargo, and so is expected to decrease with induction of autophagy. Therefore, we monitored p62 steady-state levels as an initial screen of autophagy flux. Next, we combined the measurement of the p62 with a measurement of mTORC1 activity an independent readout to evaluate autophagy. mTORC1 plays the central role in the anabolic process by increasing protein content through ribosomal biogenesis and elongation of protein translation. Specifically, mTORC1 induces mRNA translation by inducing the activation of p70S6 kinase and the subsequent phosphorylation of the S6 ribosomal protein. To ensure increased cellular biomass, mTORC1 downregulates autophagy. We chose the phosphorylation status of the downstream target of mTORC1 signaling, ribosomal S6 (hereafter S6) as a readout for mTORC1 activity.
To provide a straightforward method for detecting the induction of autophagy, we monitored ACHN cells for small molecule inhibitors which decreased the antibody labelled levels of p62 protein and pS6 phosphorylation (see methods below for detailed experiment procedure). To that end, automated high content imaging (HCl) microscopy was used to detect induction of autophagy as documented by the […] by p62 protein expression and mTORC1 inhibition by the decrease in S6 phosphorylation. The HCl assay was optimized for 384-well plate screening. Drug screening plates were designed and created as previously described.
A 7-point dilution series of 116 small molecule inhibitors covering a 1000× concentration range were plated into three, 384-well plates using the EP Motion automated dispensing system. Control wells with equal volumes of DMSO were included as negative controls. ACHN cells were grown, trypsinized counted, and plated directly into warm drug plates using Multidrop combi dispenser. Plates were incubated for 72 hr and subsequently imaged on the Olympus ScanR Platform at 10× magnification performing 4 images per well in 384 well plates. Single-cell nuclear and cytoplasmic fluorescent intensities were calculated using the Olympus ScanR Analysis Software: the DAPI-positive region of each cell was used as a boundary to quantitate nuclei counts for analysis of cell growth and integrated nuclear DNA staining intensity was used for cell cycle analysis. A 10-pixel extension of the nuclear region (and not including the nuclear region) was used to quantitate cytoplasmic signal of immunofluorescent staining of p62 protein and phosphorylation of S6. Mean signal intensity of each marker in all cells per well was used as the metric for cytoplasmic marker expression (average intensity of pS6 and p62). Unsupervised hierarchical clustering was used to identify compounds that produced similar pS6 and p62 dose response phenotypes after treatment.

[2] = tested on: Atg5−/− murine embryonic fibroblasts; assay: Lipid droplet number in Atg5−/− MEFs; format: cell-based, mouse; settings: ATG5 deficient, 24 hr
Procedure: Cells were grown on coverslips then treated with drug for 24 hours. Cells were fixed in 4% paraformaldehyde for 15 min, rinsed with PBS. Cells were washed with a 1% saponin solution for 15 min at room temperature then washed several times in PBS to remove detergent. Cells were then incubated in Bodipy (ThermoFisher #D3922) at a final concentration of 1 uM for 10 min. Bodipy was removed and slides were rinsed with PBS then air dried and mounted on slides using Dako mounting media with Dapi.

[3] = tested on: mouse embryo fibroblasts (MEFs) Atg5+/+; assay: Autophagy induction (lipidation of LC3) in Atg5+/+ MEFs; format: cell-based
ACHN xenografts = assay: ACHN xenograft study; format: in vivo
Procedure: (§1) 6-week old mice were utilized for human renal cell carcinoma xenografts. For both ACHN and SN12C cell lines 2×10^6 cells were diluted in 50 μl of PBS and 50 μl of Matrigel (BD Biosciences) and were injected subcutaneously into the right and left flank of each mouse. Tumors were monitored until they reached an average size of 50-80 mm3 (approximately 2 weeks), at which point treatments were begun. […] MK2206 (60 mg/kg/day) were administered by oral gavage 2-3 day/week. […] Tumors and mouse weights were measured twice weekly. At least 6-8 mice per treatment group were included. All mice were euthanized using CO2 inhalation followed by cervical dislocation per institutional guidelines at Oregon Health and Science University. Experiments were approved by the Institutional Animal Care and Use Committee at OHSU.
(§2) Immunostaining was performed following deparaffinization and rehydration of slides. Antigen retrieval was performed in a pressure cooker using citrate buffer (pH 6.0) for 4 min. Nonspecific binding was blocked using Vector mouse IgG blocking serum 30 min at room temperature. Samples were incubated at room temperature with rabbit monoclonal antibodies pS6 (CST #5364) cleaved caspase 3 (CST#9661), and Ki67 (Dako#M7240).
(§3) Slides were developed with Vector Immpress rabbit IgG (#MP7401) and Vector Immpress mouse IgG (#MP7400) for 30 min at room temperature. Chromogenic detection was performed using Vector Immpact DAB (#SK4105) for 3 min. Slides were counterstained with hematoxylin. A 3DHistech MIDI Scanner (Perkin Elmer) was used to capture whole slide digital images with a 20× objective. Images were converted to into MRXS files and computer graphic analysis was completed using inForm 1.4.0 Advanced Image Analysis Software (Perkin Elmer).
Mouse tumor size was analyzed by 2-way ANOVA with time and drug as factors, using GraphPad Prism. Mouse weight during treatment was analyzed by repeated measures 2-way ANOVA, with time and drug as factors. A P value less than 0.05 was considered statistically significant. Immunohistochemistry: P-values were calculated using one-way ANOVA, with Bonferroni's multiple comparison test. * denotes P<0.05, ** denotes P<0.01, and *** denotes P<0.001 throughout this disclosure. Metabolite fold-changes were computed and visualized in Python script, using the openpyxl package (for importing Excel files) and the matplotlib package (for visualizing fold changes).

glycolysis = assay: Glucose uptake and lactate excretion as readouts for glycolysis; format: cell-based, human; settings: in vitro
Text: The PI3K-AKT-mTOR pathway regulates multiple steps in glucose uptake and metabolism.

ACHN cells [4] = assay: Cellular respiration (XF96 Seahorse, ECAR and OCR); format: cell-based, human; settings: XF-96 Extracellular Flux Analyzer
Procedure: Oxygen consumption and extracellular acidification rates were carried out in a XF96 Seahorse Analyzer (Seahorse Bioscience, Billerica, Mass., USA). Cells were plated in the wells of 96-well plates (8×10^3 cells/well; XF96 plates, Seahorse Bioscience, North Billerica, Mass.) and incubated at 37° C. overnight. The next day, cells were treated with indicated drugs for 24 hours and then the medium was changed to XF Assay Medium and loaded with glucose, oligomycin, and 2-DG, respectively, as manufacture's recommendation.

SN12C xenografts = assay: SN12C xenograft study; format: in vivo
Procedure: as §1, §2
as §3, with “Images were converted to into MRXS files and computer graphic analysis was completed using inForm 1.4.0 Advanced Image Analysis Software (Perkin Elmer).” left out
Mouse tumor size was analyzed by 2-way ANOVA with time and drug as factors, using GraphPad Prism. Mouse weight during treatment was analyzed by repeated measures 2-way ANOVA, with time and drug as factors. […] Immunohistochemistry: P-values were calculated using one-way ANOVA, with Bonferroni's multiple comparison test. * denotes P<0.05, ** denotes P<0.01, and *** denotes P<0.001 throughout this disclosure. […]

MPN patients = settings: human, in vivo; cited from earlier work
[5] = tested on: human RCC and MPN cell lines; assay: Growth effect of treatment in RCC and MPN cell lines; format: cell-based; settings: multiple human RCC and MPN cell lines

N#CCNC(=O)c1ccc(-c2ccnc(Nc3ccc(N4CCOCC4)cc3)n2)cc1 [CYT387]
S6 phosphorylation (ACHN cells [1]): potently inhibited S6 phosphorylation
induction of autophagy / autophagic flux (ACHN cells [1]): potent inducers of autophagic flux
lipid droplets [2]: no increase in lipid droplets
autophagy as seen by the lipidation of LC3 [3]: induce autophagy in a dose dependent manner
apoptosis (cleaved-caspase3) in tumors (ACHN xenografts; ACHN xenograft tumors): minimal impact on apoptosis
antitumor effect of single agent (ACHN xenografts; ACHN, CYT387 50 mg/kg/day or MK2206 60 mg/kg/day oral gavage): exhibited antitumor effect
number of adipophilin-positive LDs in tumors (ACHN xenografts; treatment day 40, ACHN xenograft tumors, CYT387<MK2206<CYT387+MK2206, p=0.0046): significantly and incrementally increased
glucose uptake (glycolysis; 18FDG): significantly decreased glucose uptake
lactate production (glycolysis; culture media): reduced lactate production
ECAR (ACHN cells [4]): significantly reduced the ECAR
apoptosis (cleaved-caspase3) in tumors (SN12C xenografts; SN12C xenograft tumors): minimal impact on apoptosis
antitumor effect of single agent (SN12C xenografts; SN12C, CYT387 50 mg/kg/day or MK2206 60 mg/kg/day oral gavage): exhibited antitumor effect
clinical effect in MPN patients (MPN patients): improved splenomegaly and reduced anemia
effect of treatment on cell growth [5]: primarily cytostatic
